From patent publication US20040043403A1, “Process for determining the biological activity of epidermal growth factor receptor tyrosine kinase inhibitors” (priority 2000, published 2004)

How the values were obtained:
MDA-MB468 = assay: Real time RT-PCR gene expression in MDA-MB468 cells; type: cell-based, human; settings: MDA-MB468, 3 μM, 24 h; relative to DMSO-treated NCI-H520 calibrator
Protocol: (§1) 20 million tissue culture cells (about 80% confluent) or 200 million WBCs are incubated for 2 or 24 h in culture medium containing 3 μM of an EGFR tyrosine kinase inhibitor or 0.03% DMSO. Total RNA from cell pellet is isolated using the RNeasy kit (Qiagen). mRNA is isolated using the oligotex mRNA purification kit (Qiagen). The quality of the obtained mRNA is tested by real time RT-PCR using beta-Actin primers (PE Applied Biosystems) with an amplicon size of 300 base pairs (bp). The total RNA is used as a reference to calculate the amount of mRNA-enrichment in the oligotex purified samples. The primers and probes are designed from mRNA sequences within the coding region or in the 3′ untranslated region (Table 2). For real time RT-PCR, RNA concentrations between 1 and 50 ng/reaction are used to obtain signals between 15-35 cycles. For each RNA preparation RT-PCR reactions are performed with and without reverse transcriptase to check for genomic DNA contamination. In all RNA samples tested, genomic DNA contamination is less than 1%. To normalize for variability in the initial concentration and quality of the total RNA, Glyceraldehyde-3-phosphate dehydrogenase (GAPDH) is used as an endogenous reference in all quantification experiments. For RT-PCR a one step, two-enzyme system is chosen. The TaqMan PCR Core Reagent Kit (PE #N808-0228) plus the reverse transcriptase MuLV (PE Biosystems # N808-0018) and RNase inhibitor (Roche Diagnostics # 799 025) are mixed as described in the manufacturers protocol. Triplicate measurements are done for target and for reference reactions. […] RT-PCR reactions are done with RNA concentrations of 2.5, 5, 10, 20, 40 and 80 ng per reaction. […] The ΔCT value is determined by subtracting the average reference CT values from the average target CT values of the three measurements. Relative quantification is performed in triplicates, reference and target, using the RT-PCR protocol described above. […] Expression levels for the three genes, calculated relative to NCI-H520, show big differences between the various cell types (Table 5). […]

NCI-H596 = assay: Real time RT-PCR gene expression in NCI-H596 cells; type: cell-based, human; settings: NCI-H596, 3 μM, 24 h; relative to DMSO-treated NCI-H520 calibrator
Protocol: as §1

## C[C@@H](Nc1ncnc2[nH]c(-c3ccc(O)cc3)cc12)c1ccccc1 [COMPOUND A, (R)-6-(4-hydroxy-phenyl)-4-[(1-phenyl-ethyl)-amino]-7H-pyrrolo[2,3-d]pyrimidine]
MDA-MB468
  Relative Clusterin expression: 32.60 n-fold
  Relative TRAIL expression: 2.89 n-fold
  Relative VAC-beta expression: 26.60 n-fold
NCI-H596
  Relative Clusterin expression: 44.12 n-fold
  Relative TRAIL expression: 81.76 n-fold
  Relative VAC-beta expression: 102.30 n-fold
